Experimental data published in paper PMC6242839 (Nature Communications, 2018).
Where two headings read alike, the source gives them in different places.

Tests used:
[1] = test system: S. aureus ATCC 29213; experiment: microbe, parasite or virus in culture; type: cell-based; conditions: Staphylococcus aureus, ATCC29213
[2] = POPC LUVs, compound 50 µM
[3] = test system: S. aureus ATCC 29213 protoplasts; experiment: microbe, parasite or virus in culture; type: cell-based, Staphylococcus aureus; conditions: Staphylococcus aureus, ATCC29213
[4] = test system: B. cereus ATCC 14579; experiment: microbe, parasite or virus in culture; type: cell-based, Bacillus cereus
[5] = test system: E. coli K12 spheroplasts; experiment: microbe, parasite or virus in culture; type: cell-based, Escherichia coli; conditions: Escherichia coli
[6] = test system: B. cereus ATCC 14579 protoplasts; experiment: microbe, parasite or virus in culture; type: cell-based; conditions: Bacillus cereus, ATCC14579
[7] = test system: B. cereus ATCC 14579 mutant library; type: cell-based, Bacillus cereus
[8] = test system: B. subtilis 168 and knockout mutants; experiment: microbe, parasite or virus in culture; type: cell-based; conditions: Bacillus subtilis
[9] = test system: B. cereus ATCC 14579; experiment: microbe, parasite or virus in culture; type: cell-based; conditions: Bacillus cereus, ATCC14579
[10] = test system: B. cereus ATCC 14579 spores and vegetative cells; experiment: microbe, parasite or virus in culture; type: cell-based; conditions: Bacillus cereus
[11] = test system: B. cereus (ATCC 10876); experiment: microbe, parasite or virus in culture; type: cell-based; conditions: Bacillus cereus, ATCC10876, 16 h, read-out: MIC B. cereus
[12] = in vitro; conditions: human
[13] = test system: B. cereus ATCC 14579 strains resistant to known antibiotics; experiment: microbe, parasite or virus in culture; type: cell-based, Bacillus cereus; conditions: Bacillus cereus, ATCC14579
[14] = test system: E. faecalis (ATCC 29212); experiment: microbe, parasite or virus in culture; type: cell-based; conditions: Enterococcus faecalis, ATCC29212, 16 h, read-out: MIC E. faecalis
[15] = POPE LUVs, compound 50 µM
[16] = test system: E. coli K12; experiment: microbe, parasite or virus in culture; type: cell-based; conditions: Escherichia coli
[17] = test system: B. anthracis ovine strain (animal isolate); experiment: microbe, parasite or virus in culture; type: cell-based; conditions: Bacillus anthracis, 16 h, read-out: MIC B. anthracis Ovine
[18] = test system: B. anthracis pathogenic strain (human isolate); experiment: microbe, parasite or virus in culture; type: cell-based; conditions: Bacillus anthracis, 16 h, read-out: MIC B. anthracis Pathogenic
[19] = test system: B. anthracis Sterne strain; experiment: microbe, parasite or virus in culture; type: cell-based; conditions: Bacillus anthracis, 16 h, read-out: MIC B. anthracis Sterne
[20] = test system: B. cereus ATCC 14579; experiment: microbe, parasite or virus in culture; type: cell-based, Bacillus cereus; remark: listed apart in the source
[21] = course of the experiment (14 h)
[22] = B. subtilis 168, parental isogenic strain

CCCCCCCCCCCCO[C@H]1C[C@H](O)[C@@H](O)[C@H](C)O1 [Compound 1]
~ 30%: total membrane leakage [2, 21]
8 µg/mL: MBC ([10]; ATCC14579, 20 min) | MBC ([10]; ATCC14579, 0.5 h)
< 50%: Lmax value obtained from the fit [2]
> 50 µM: IC50 at 48 h [12]
256 µg/mL: MIC [1] | MIC [3] | MIC [16]
50 µM: MIC [14]
about 160 min: time of leakage, τL [15]
16 µg/mL: MBC ([4]; Bacillus cereus, ATCC14579) | MIC ([4]; Bacillus cereus, ATCC14579) | MIC [6] | MIC [8, 22] | MIC ([8]; B. subtilis ΔexpZ) | MIC ([8]; B. subtilis ΔmtlA) | MBC ([8]; B. subtilis ΔtreP) | MIC ([8]; B. subtilis ΔtreP) | MBC ([8]; B. subtilis ΔybbF) | MIC ([8]; B. subtilis ΔybbF) | MIC ([8]; B. subtilis ΔybdA) | MIC ([8]; B. subtilis ΔybdB) | MIC ([8]; B. subtilis ΔydhO) | MBC ([8]; B. subtilis ΔyfiC) | MIC ([8]; B. subtilis ΔyfiC) | MBC ([8]; B. subtilis ΔyfiM) | MIC ([8]; B. subtilis ΔyfiM) | MIC ([8]; B. subtilis ΔyfiN) | MIC ([8]; B. subtilis ΔyflF) | MBC ([8]; B. subtilis ΔyfmR) | MIC ([8]; B. subtilis ΔyfmR) | MBC ([8]; B. subtilis ΔygaD) | MIC ([8]; B. subtilis ΔygaD) | MBC ([8]; B. subtilis ΔyhaQ) | MIC ([8]; B. subtilis ΔyhaQ) | MBC ([8]; B. subtilis ΔyhcJ) | MIC ([8]; B. subtilis ΔyhcJ) | MIC ([8]; B. subtilis ΔyheH) | MBC ([8]; B. subtilis ΔyjdD) | MIC ([8]; B. subtilis ΔyjdD) | MBC ([8]; B. subtilis ΔykfD) | MIC ([8]; B. subtilis ΔykfD) | MIC ([8]; B. subtilis ΔyknU) | MBC ([8]; B. subtilis ΔykoD) | MIC ([8]; B. subtilis ΔykoD) | MIC ([8]; B. subtilis ΔykpA) | MIC ([8]; B. subtilis ΔyvcC) | MIC ([8]; B. subtilis ΔywbA) | MIC ([8]; B. subtilis ΔywhQ) | MIC ([8]; B. subtilis ΔyxdM) | MIC ([8]; B. subtilis ΔyybL) | MIC [9] | MBC [13] | MIC [13] | MBC ([20]; Bacillus cereus, ATCC14579)
25 µM: MIC [11] | MIC [17] | MIC [18] | MIC [19]
≤ 60 min: 1000-fold reduction (T99.9) [20]
~ 100%: leakage of encapsulated carboxyfluorescein [15, 21]
about 692 min: time of leakage, τL [2]
4 µg/mL: MIC [5]
100 µM: IC50 at 24 h [12]
32 µg/mL: MBC [4] | MBC [8, 22] | MBC ([8]; B. subtilis ΔexpZ) | MBC ([8]; B. subtilis ΔmtlA) | MBC ([8]; B. subtilis ΔybdA) | MBC ([8]; B. subtilis ΔybdB) | MBC ([8]; B. subtilis ΔydhO) | MBC ([8]; B. subtilis ΔyfiB) | MIC ([8]; B. subtilis ΔyfiB) | MBC ([8]; B. subtilis ΔyfiN) | MBC ([8]; B. subtilis ΔyflF) | MBC ([8]; B. subtilis ΔyheH) | MBC ([8]; B. subtilis ΔyknU) | MBC ([8]; B. subtilis ΔykpA) | MBC ([8]; B. subtilis ΔyvcC) | MBC ([8]; B. subtilis ΔywbA) | MBC ([8]; B. subtilis ΔywhQ) | MBC ([8]; B. subtilis ΔyxdM) | MBC ([8]; B. subtilis ΔyybL) | MBC [20]
MIC values remain unchanged: MIC of mutant library compared with the parental strain [7]
